Measurements as given in PMC8155809 (The Journal of General Physiology, 2021).

Target: T1, Human TREK-2 (KCNK10) crystal construct (Homo sapiens, UniProt P57789)
T1 construct: “crystal construct” protein (Gly67 to Glu340); made in house
T1 sequence (P57789 67-340 isoform P57789-4): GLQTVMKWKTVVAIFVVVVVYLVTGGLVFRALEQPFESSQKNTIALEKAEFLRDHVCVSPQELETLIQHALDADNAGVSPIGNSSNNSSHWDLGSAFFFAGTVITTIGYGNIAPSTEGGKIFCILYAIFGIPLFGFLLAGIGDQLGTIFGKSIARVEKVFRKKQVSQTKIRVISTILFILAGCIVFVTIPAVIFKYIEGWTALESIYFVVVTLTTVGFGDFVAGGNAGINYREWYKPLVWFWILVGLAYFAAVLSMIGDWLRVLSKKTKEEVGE
Test: Single-channel recordings of purified TREK-2 reconstituted in lipid bilayers
Assay type: biochemical
Conditions: for Po (single-channel open probability) / block of channel (Po): 10 µM NFx; for Po (single-channel open probability): +60 mV; for AC1, area of closed state 1 / AC2, area of closed state 2 / AC3, area of closed state 3 / AC4, area of closed state 4 / AC5, area of closed state 5 / τC1, mean lifetime of closed state 1 / τC2, mean lifetime of closed state 2 / τC3, mean lifetime of closed state 3 / τC4, mean lifetime of closed state 4 / τC5, mean lifetime of closed state 5 / τO, mean open time: 100 μM NFx
Procedure: Human TREK-2 (KCNK10) “crystal construct” protein (Gly67 to Glu340) was expressed and purified as previously described ([Dong et al., 2015]), with the exception that it was purified in 1% wt/vol n-octyl-β-D-glucoside, 0.1% wt/vol cholesteryl hemisuccinate. 1,2-Diphytanoyl-sn-glycero-3-phosphocholine was dissolved in chloroform to a concentration of 10 mM and stored at −20°C. The GUVs were then made by electroformation in a 1 M sorbitol solution using Vesicle Prep Pro (Nanion Technologies). Purified TREK-2 was then mixed with GUVs to a final concentration of ∼1–5 µg/ml and incubated overnight at 4°C with 0.5 mg/ml Bio-Beads (Bio-Rad) before use.
All electrophysiological recordings were performed with the Nanion Port-a-Patch system connected to an Axopatch 200B amplifier via a Digidata 1440A digitizer (Molecular Devices). Data were filtered at 5 kHz and recorded at a 200-kHz sampling rate with program Clampex (Molecular Devices). Experiments were performed in symmetrical 200 mM KCl and 10 mM HEPES (pH 6.0 with KOH) solutions. Single-channel currents were idealized using 50% threshold criterion with program Clampfit (Molecular Devices) at an imposed resolution of 50 µs. Only one open and one closed level were considered in the analysis; all subconductance states were neglected (these typically comprised less than 1% of open- and closed-level events of channels in the “high PO” mode). Analysis of amplitude and dwell-time distributions was performed in Origin (OriginLab Corporation) and an in-house software written in Mathematica (Wolfram Technologies). Empirical correction for open times due to missed events was performed as described previously ([Davies et al., 1992]). Critical time for burst analysis was determined using Colquhoun and Sakmann criterion ([Colquhoun and Sakmann, 1985]).

- Po (single-channel open probability) (channel with high Po (Fig. S5B)): 0.70
- Po (single-channel open probability) (channel with low Po (Fig. S5A)): 0.048
- block of channel (Po) (high-Po mode): 20 ± 0.02%
- block of channel (Po) (standard mode): 23 ± 0.05%
- AC1, area of closed state 1 (V 20 mV, high-Po mode): 74%
- AC2, area of closed state 2 (V 20 mV, high-Po mode): 15.5%
- AC3, area of closed state 3 (V 20 mV, high-Po mode): 4.4%
- AC4, area of closed state 4 (V 20 mV, high-Po mode): 4.9%
- AC5, area of closed state 5 (V 20 mV, high-Po mode): 1.5%
- τC1, mean lifetime of closed state 1 (V 20 mV, high-Po mode): 0.041 ms
- τC2, mean lifetime of closed state 2 (V 20 mV, high-Po mode): 0.30 ms
- τC3, mean lifetime of closed state 3 (V 20 mV, high-Po mode): 1.3 ms
- τC4, mean lifetime of closed state 4 (V 20 mV, high-Po mode): 23 ms
- τC5, mean lifetime of closed state 5 (V 20 mV, high-Po mode): 90 ms
- τO, mean open time (V 20 mV, high-Po mode): 0.53 ms
- AC1, area of closed state 1 (V 40 mV, high-Po mode): 75%
- AC2, area of closed state 2 (V 40 mV, high-Po mode): 13.7%
- AC3, area of closed state 3 (V 40 mV, high-Po mode): 3.3%
- AC4, area of closed state 4 (V 40 mV, high-Po mode): 6.2%
- AC5, area of closed state 5 (V 40 mV, high-Po mode): 2.0%
- τC1, mean lifetime of closed state 1 (V 40 mV, high-Po mode): 0.083 ms
- τC2, mean lifetime of closed state 2 (V 40 mV, high-Po mode): 0.36 ms
- τC3, mean lifetime of closed state 3 (V 40 mV, high-Po mode): 4.8 ms
- τC4, mean lifetime of closed state 4 (V 40 mV, high-Po mode): 39 ms
- τC5, mean lifetime of closed state 5 (V 40 mV, high-Po mode): 160 ms
- τO, mean open time (V 40 mV, high-Po mode): 0.69 ms
- AC1, area of closed state 1 (V 60 mV, high-Po mode): 75%
- AC2, area of closed state 2 (V 60 mV, high-Po mode): 13.9%
- AC3, area of closed state 3 (V 60 mV, high-Po mode): 3.5%
- AC4, area of closed state 4 (V 60 mV, high-Po mode): 5.7%
- AC5, area of closed state 5 (V 60 mV, high-Po mode): 1.6%
- τC1, mean lifetime of closed state 1 (V 60 mV, high-Po mode): 0.059 ms
- τC2, mean lifetime of closed state 2 (V 60 mV, high-Po mode): 0.31 ms
- τC3, mean lifetime of closed state 3 (V 60 mV, high-Po mode): 2.1 ms
- τC4, mean lifetime of closed state 4 (V 60 mV, high-Po mode): 41 ms
- τC5, mean lifetime of closed state 5 (V 60 mV, high-Po mode): 160 ms
- τO, mean open time (V 60 mV, high-Po mode): 0.60 ms
- AC1, area of closed state 1 (V 80 mV, high-Po mode): 76%
- AC2, area of closed state 2 (V 80 mV, high-Po mode): 11.9%
- AC3, area of closed state 3 (V 80 mV, high-Po mode): 1.9%
- AC4, area of closed state 4 (V 80 mV, high-Po mode): 7.7%
- AC5, area of closed state 5 (V 80 mV, high-Po mode): 2.6%
- τC1, mean lifetime of closed state 1 (V 80 mV, high-Po mode): 0.055 ms
- τC2, mean lifetime of closed state 2 (V 80 mV, high-Po mode): 0.32 ms
- τC3, mean lifetime of closed state 3 (V 80 mV, high-Po mode): 2.9 ms
- τC4, mean lifetime of closed state 4 (V 80 mV, high-Po mode): 78 ms
- τC5, mean lifetime of closed state 5 (V 80 mV, high-Po mode): 490 ms
- τO, mean open time (V 80 mV, high-Po mode): 0.49 ms
- AC1, area of closed state 1 (V 100 mV, high-Po mode): 77%
- AC2, area of closed state 2 (V 100 mV, high-Po mode): 9.2%
- AC3, area of closed state 3 (V 100 mV, high-Po mode): 2.5%
- AC4, area of closed state 4 (V 100 mV, high-Po mode): 7.5%
- AC5, area of closed state 5 (V 100 mV, high-Po mode): 4.1%
- τC1, mean lifetime of closed state 1 (V 100 mV, high-Po mode): 0.064 ms
- τC2, mean lifetime of closed state 2 (V 100 mV, high-Po mode): 0.30 ms
- τC3, mean lifetime of closed state 3 (V 100 mV, high-Po mode): 1.9 ms
- τC4, mean lifetime of closed state 4 (V 100 mV, high-Po mode): 72 ms
- τC5, mean lifetime of closed state 5 (V 100 mV, high-Po mode): 220 ms
- τO, mean open time (V 100 mV, high-Po mode): 0.44 ms
- AC1, area of closed state 1 (V −20 mV, high-Po mode): 81%
- AC2, area of closed state 2 (V −20 mV, high-Po mode): 10.7%
- AC3, area of closed state 3 (V −20 mV, high-Po mode): 2.5%
- AC4, area of closed state 4 (V −20 mV, high-Po mode): 5.0%
- AC5, area of closed state 5 (V −20 mV, high-Po mode): 0.6%
- τC1, mean lifetime of closed state 1 (V −20 mV, high-Po mode): 0.061 ms
- τC2, mean lifetime of closed state 2 (V −20 mV, high-Po mode): 0.35 ms
- τC3, mean lifetime of closed state 3 (V −20 mV, high-Po mode): 2.5 ms
- τC4, mean lifetime of closed state 4 (V −20 mV, high-Po mode): 45 ms
- τC5, mean lifetime of closed state 5 (V −20 mV, high-Po mode): 260 ms
- τO, mean open time (V −20 mV, high-Po mode): 0.54 ms
- AC1, area of closed state 1 (V −40 mV, high-Po mode): 85%
- AC2, area of closed state 2 (V −40 mV, high-Po mode): 9.3%
- AC3, area of closed state 3 (V −40 mV, high-Po mode): 1.7%
- AC4, area of closed state 4 (V −40 mV, high-Po mode): 4.2%
- AC5, area of closed state 5 (V −40 mV, high-Po mode): 0.2%
- τC1, mean lifetime of closed state 1 (V −40 mV, high-Po mode): 0.069 ms
- τC2, mean lifetime of closed state 2 (V −40 mV, high-Po mode): 0.35 ms
- τC3, mean lifetime of closed state 3 (V −40 mV, high-Po mode): 2.5 ms
- τC4, mean lifetime of closed state 4 (V −40 mV, high-Po mode): 52 ms
- τC5, mean lifetime of closed state 5 (V −40 mV, high-Po mode): 520 ms
- τO, mean open time (V −40 mV, high-Po mode): 0.51 ms
- AC1, area of closed state 1 (V −60 mV, high-Po mode): 85%
- AC2, area of closed state 2 (V −60 mV, high-Po mode): 9.5%
- AC3, area of closed state 3 (V −60 mV, high-Po mode): 1.2%
- AC4, area of closed state 4 (V −60 mV, high-Po mode): 3.4%
- AC5, area of closed state 5 (V −60 mV, high-Po mode): 0.6%
- τC1, mean lifetime of closed state 1 (V −60 mV, high-Po mode): 0.082 ms
- τC2, mean lifetime of closed state 2 (V −60 mV, high-Po mode): 0.30 ms
- τC3, mean lifetime of closed state 3 (V −60 mV, high-Po mode): 1.6 ms
- τC4, mean lifetime of closed state 4 (V −60 mV, high-Po mode): 44 ms
- τC5, mean lifetime of closed state 5 (V −60 mV, high-Po mode): 230 ms
- τO, mean open time (V −60 mV, high-Po mode): 0.35 ms
- AC1, area of closed state 1 (V −80 mV, high-Po mode): 89%
- AC2, area of closed state 2 (V −80 mV, high-Po mode): 6.0%
- AC3, area of closed state 3 (V −80 mV, high-Po mode): 1.0%
- AC4, area of closed state 4 (V −80 mV, high-Po mode): 2.8%
- AC5, area of closed state 5 (V −80 mV, high-Po mode): 0.8%
- τC1, mean lifetime of closed state 1 (V −80 mV, high-Po mode): 0.110 ms
- τC2, mean lifetime of closed state 2 (V −80 mV, high-Po mode): 0.37 ms
- τC3, mean lifetime of closed state 3 (V −80 mV, high-Po mode): 9.5 ms
- τC4, mean lifetime of closed state 4 (V −80 mV, high-Po mode): 58 ms
- τC5, mean lifetime of closed state 5 (V −80 mV, high-Po mode): 140 ms
- τO, mean open time (V −80 mV, high-Po mode): 0.27 ms
- AC1, area of closed state 1 (V −100 mV, high-Po mode): 88%
- AC2, area of closed state 2 (V −100 mV, high-Po mode): 8.0%
- AC3, area of closed state 3 (V −100 mV, high-Po mode): 0.6%
- AC4, area of closed state 4 (V −100 mV, high-Po mode): 2.2%
- AC5, area of closed state 5 (V −100 mV, high-Po mode): 1.0%
- τC1, mean lifetime of closed state 1 (V −100 mV, high-Po mode): 0.110 ms
- τC2, mean lifetime of closed state 2 (V −100 mV, high-Po mode): 0.37 ms
- τC3, mean lifetime of closed state 3 (V −100 mV, high-Po mode): 3.0 ms
- τC4, mean lifetime of closed state 4 (V −100 mV, high-Po mode): 40 ms
- τC5, mean lifetime of closed state 5 (V −100 mV, high-Po mode): 140 ms
- τO, mean open time (V −100 mV, high-Po mode): 0.20 ms
SMILES: NCCC(Oc1ccc(C(F)(F)F)cc1)c1ccccc1 (stereo not drawn) [NFx, norfluoxetine]
